The source of these data is PubChem BioAssay AID198 (DTP/NCI, 2004).

Several values for one entry are separate records, joined by “and”; a condition that tells them apart may be missing. Equal entries are not always repeated. Toxic doses and inconclusive results are not listed.

For this experiment, the system named is B16 melanoma ip, C57BL/6 mice, median survival T/C. Briefly: NCI In Vivo Anticancer Drug Screen. Data for tumor model B16 Melanoma (intraperitoneal) in C57BL/6 mice. To be noted: endpoint: median survival time, higher = longer survival. The procedure: The antitumor activity of compounds was measured in mice bearing transplantable tumors. Survival or tumor size were measured and the results are expressed as the measurement made in the treated group (T) divided by the measurement made in the vehicle treated control group (C). The tumor model used in this assay is B16 Melanoma (intraperitoneal) in C57BL/6 mice

[1] abbreviates: dose: 0.4 mg/kg/injection, schedule: Q01DX009 (ip), vehicle: saline.
Setting [2] is: dose: 125.0 mg/kg/injection, schedule: Q01DX009 (ip), vehicle: saline.
Setting [3] is: dose: 250.0 mg/kg/injection, schedule: Q01DX009 (ip), vehicle: saline.
Where [4] appears, read: dose: 500.0 mg/kg/injection, schedule: Q01DX009 (ip), vehicle: saline.
Where [5] appears, read: dose: 0.25 mg/kg/injection, schedule: Q01DX009 (ip), vehicle: saline.
The mark [6] stands for this setting: dose: 0.5 mg/kg/injection, schedule: Q01DX009 (ip), vehicle: saline.
Setting [7] is: dose: 1.0 mg/kg/injection, schedule: Q01DX009 (ip), vehicle: saline.
Setting [8] is: dose: 10.0 mg/kg/injection, schedule: Q01DX009 (ip), vehicle: saline.
Where [9] appears, read: dose: 1.0 mg/kg/injection, schedule: Q01DX009 (ip), vehicle: saline with Tween-80.
[10] abbreviates: dose: 12.5 mg/kg/injection, schedule: Q01DX009 (ip), vehicle: saline.
Setting [11] is: dose: 50.0 mg/kg/injection, schedule: Q01DX009 (ip), vehicle: saline.
Setting [12] is: dose: 25.0 mg/kg/injection, schedule: Q01DX009 (ip), vehicle: saline.
The mark [13] stands for this setting: dose: 100.0 mg/kg/injection, schedule: Q01DX009 (ip), vehicle: saline.
Where [14] appears, read: dose: 25.0 mg/kg/injection, schedule: Q01DX009 (ip), vehicle: saline with Tween-80.
[15] abbreviates: dose: 50.0 mg/kg/injection, schedule: Q01DX009 (ip), vehicle: saline with Tween-80.
[16] abbreviates: dose: 0.1 mg/kg/injection, schedule: Q01DX009 (ip), vehicle: saline.
[17] abbreviates: dose: 0.2 mg/kg/injection, schedule: Q01DX009 (ip), vehicle: saline.
[18] abbreviates: dose: 3.13 mg/kg/injection, schedule: Q01DX009 (ip), vehicle: saline.
[19] abbreviates: dose: 6.25 mg/kg/injection, schedule: Q01DX009 (ip), vehicle: saline.
Setting [20] is: dose: 7.5 mg/kg/injection, schedule: Q01DX001 (ip), vehicle: saline.
[21] abbreviates: dose: 15.0 mg/kg/injection, schedule: Q01DX001 (ip), vehicle: saline.

As for `CC1=C2C(=CC(C)(C)[C@@H]2O)C(=O)[C@](C)(O)C12CC2`, the T/C by setting is: (dose: 0.17 mg/kg/injection, schedule: Q01DX009 (ip), vehicle: saline) 110 % of control; (dose: 0.26 mg/kg/injection, schedule: Q01DX009 (ip), vehicle: saline) 106 % of control; under setting [1], 106 % of control; (dose: 0.6 mg/kg/injection, schedule: Q01DX009 (ip), vehicle: saline) 106 % of control.

`CCOC(N)=O`: the T/C is 100 % of control under setting [2], 107 % of control under setting [3] and 100 % of control under setting [4].

As for `CO[C@H](C(=O)[C@@H](O)[C@@H](C)O)[C@@H]1Cc2cc3cc(OC4CC(OC5CC(O)C(O)C(C)O5)C(O)C(C)O4)c(C)c(O)c3c(O)c2C(=O)[C@H]1OC1CC(OC2CC(OC3CC(C)(O)C(O)C(C)O3)C(O)C(C)O2)C(O)C(C)O1` (some centres undefined), the T/C reads like this: under setting [5], 106 % of control; under setting [6], 100 % of control; under setting [7], 113 % of control.

As to `COc1ccc(-c2c(C)c(C(=O)O)nc(-c3ccc4c(O)c(OC)c5c(c4n3)=NC(C)(C)N=5)c2N)c(O)c1OC`, the T/C is, setting by setting: under setting [8], 124 % of control; (dose: 20.0 mg/kg/injection, schedule: Q01DX009 (ip), vehicle: saline) 107 % of control.

Turning to `CC(=O)OC(C)(C)/C=C/C(=O)[C@](C)(O)[C@H]1[C@H](O)C[C@@]2(C)[C@@H]3CC=C4[C@@H](C[C@H](O)C(=O)C4(C)C)[C@]3(C)C(=O)C[C@]12C`, the T/C runs as follows: (dose: 0.25 mg/kg/injection, schedule: Q01DX009 (ip), vehicle: saline with Tween-80) 92 % of control; (dose: 0.5 mg/kg/injection, schedule: Q01DX009 (ip), vehicle: saline with Tween-80) 100 % of control; under setting [9], 92 % of control.

As to `NC(=O)Oc1cc(OC(N)=O)cc(N(CCCl)CCCl)c1`, the T/C is, setting by setting: under setting [10], 110 % of control; under setting [11], 123 % of control.

As for `CCc1nc(N)nc(N)c1-c1ccc(Cl)cc1`, the T/C under setting [12] was 96 % of control; the T/C under setting [11] was 100 % of control; the T/C under setting [13] is 93 % of control; the T/C (dose: 200.0 mg/kg/injection, schedule: Q01DX009 (ip), vehicle: saline) is 113 % of control.

Consider `CC(C)S(=O)(=O)/C(Cl)=C(/Cl)C(Cl)=C(Cl)Cl`, for which the T/C is 94 % of control under setting [14] and 97 % of control under setting [15].

As to `N#CSCc1ccc(Cl)cc1Cl`, the T/C is, setting by setting: under setting [14], 102 % of control; under setting [15], 100 % of control.

In the case of `O=C(O)c1[nH]c(=O)[nH]c(=O)c1F`, the T/C (dose: 1.25 mg/kg/injection, schedule: Q01DX009 (ip), vehicle: saline) was 100 % of control; the T/C (dose: 2.5 mg/kg/injection, schedule: Q01DX009 (ip), vehicle: saline) was 106 % of control and 110 % of control; the T/C (dose: 5.0 mg/kg/injection, schedule: Q01DX009 (ip), vehicle: saline) is 100 % of control and 103 % of control; the T/C under setting [8] is 87 % of control and 89 % of control.

Take `C[C@]12C=CC(=O)C=C1CC[C@@H]1[C@@H]2C(=O)C[C@@]2(C)[C@H]1CC[C@]2(O)C(=O)CO`: the T/C is 100 % of control under setting [10], 100 % of control under setting [12] and 88 % of control under setting [13].

Turning to `O=NN(CCCl)C(=O)NCCCl`, the T/C by setting is: (dose: 7.5 mg/kg/injection, schedule: Q01DX009 (ip), vehicle: saline) 164 % of control and 213 % of control; (dose: 15.0 mg/kg/injection, schedule: Q01DX009 (ip), vehicle: saline) 121 % of control.

On to `CC1CC(C)(O)CC(C(O)CC2CC(=O)NC(=O)C2)C1=O` (centres undefined), for which the T/C under setting [16] was 111 % of control; the T/C under setting [17] is 122 % of control; the T/C under setting [1] is 116 % of control; the T/C (dose: 0.8 mg/kg/injection, schedule: Q01DX009 (ip), vehicle: saline) is 86 % of control.

Turning to `Cn1cc(NC(=O)c2cc(NC(=O)CN=C(N)N)cn2C)cc1C(=O)NCCC(=N)N`, the T/C under setting [18] is 100 % of control and 107 % of control; the T/C under setting [19] is 100 % of control and 107 % of control; the T/C under setting [10] is 100 % of control; the T/C under setting [12] was 86 % of control.

For `CCCCc1ccc(NC(=O)N(CCCl)N=O)cc1`, the T/C under setting [18] is 200 % of control and the T/C under setting [19] was 210 % of control.

Take `O=NN(CCF)C(=O)NC1CCS(=O)(=O)CC1`: the T/C runs as follows: under setting [20], 212 % of control; under setting [21], 200 % of control; (dose: 30.0 mg/kg/injection, schedule: Q01DX001 (ip), vehicle: saline) 175 % of control.

With `c1ccc2sc(SSN3CC4CCC(CC4)C3)nc2c1`, the T/C (dose: 12.5 mg/kg/injection, schedule: Q01DX009 (ip), vehicle: saline with Tween-80) is 100 % of control; the T/C under setting [14] was 94 % of control; the T/C under setting [15] was 94 % of control; the T/C (dose: 100.0 mg/kg/injection, schedule: Q01DX009 (ip), vehicle: saline with Tween-80) is 89 % of control; the T/C (dose: 200.0 mg/kg/injection, schedule: Q01DX009 (ip), vehicle: saline with Tween-80) is 88 % of control.

Turning to `CC1=C2C(=C[C@@](C)(CO)[C@@H]2O)C(=O)[C@](C)(O)C12CC2`, the T/C runs as follows: under setting [16], 113 % of control; under setting [17], 113 % of control.

Consider `CN1C=c2c3c(ccc2=C2C=CC4C=C5OCOC5=CC4=C21)OCO3` (centres undefined), for which the T/C runs as follows: under setting [9], 103 % of control; (dose: 2.0 mg/kg/injection, schedule: Q01DX009 (ip), vehicle: saline with Tween-80) 92 % of control; (dose: 4.0 mg/kg/injection, schedule: Q01DX009 (ip), vehicle: saline with Tween-80) 96 % of control.

Consider `CC1CCC(NC(=O)N(CCCl)N=O)CC1` (centres undefined), for which the T/C by setting is: (dose: 1.9 mg/kg/injection, schedule: Q01DX001 (ip), vehicle: saline) 100 % of control; (dose: 3.75 mg/kg/injection, schedule: Q01DX001 (ip), vehicle: saline) 112 % of control; under setting [20], 103 % of control; under setting [21], 115 % of control.

Regarding `CN(C)/N=N/c1nc[nH]c1C(N)=O`, the T/C runs as follows: under setting [12], 116 % of control; under setting [11], 120 % of control; under setting [13], 150 % of control.

For `NC(Cc1ccc(N(CCCl)CCCl)cc1)C(=O)O` (centres undefined), the T/C (dose: 4.0 mg/kg/injection, schedule: Q01DX009 (ip), vehicle: saline) was 200 % of control and 268 % of control and 350 % of control.

Turning to `CN1Cc2c(ccc3c2OCO3)[C@@H]2[C@H](O)Cc3cc4c(cc3[C@@H]21)OCO4`, the T/C was 107 % of control (dose: 62.5 mg/kg/injection, schedule: Q01DX009 (ip), vehicle: saline with Tween-80); 110 % of control (dose: 125.0 mg/kg/injection, schedule: Q01DX009 (ip), vehicle: saline with Tween-80); 117 % of control (dose: 250.0 mg/kg/injection, schedule: Q01DX009 (ip), vehicle: saline with Tween-80).

`CN(C)CCCN1c2ccccc2Sc2ccc(Cl)cc21`: the T/C is 100 % of control and 97 % of control under setting [18]; 100 % of control and 102 % of control under setting [19]; 111 % of control and 105 % of control under setting [10]; 100 % of control and 108 % of control under setting [12].

Regarding `COc1cccc2c1C(=O)c1c(O)c3c(c(O)c1C2=O)C[C@@](O)(C(C)=O)C[C@@H]3OC1CC(N)C(O)C(C)O1` (some centres undefined), the T/C is 177 % of control under setting [5]; 188 % of control under setting [6]; 277 % of control under setting [7]; 186 % of control (dose: 2.0 mg/kg/injection, schedule: Q01DX009 (ip), vehicle: saline).

Take `O=C(N[C@H](CO)[C@H](O)c1ccc([N+](=O)[O-])cc1)C(Cl)Cl`: the T/C is, setting by setting: (dose: 62.5 mg/kg/injection, schedule: Q01DX009 (ip), vehicle: saline) 106 % of control and 114 % of control; under setting [2], 106 % of control and 107 % of control; under setting [3], 106 % of control and 117 % of control; under setting [4], 106 % of control and 107 % of control.

For `N[C@@H](Cc1ccc(N(CCCl)CCCl)cc1)C(=O)O`, the T/C (dose: 1.5 mg/kg/injection, schedule: Q01DX009 (ip), vehicle: saline) is 170 % of control and 228 % of control; the T/C (dose: 3.0 mg/kg/injection, schedule: Q01DX009 (ip), vehicle: saline) was 210 % of control; the T/C (dose: 6.0 mg/kg/injection, schedule: Q01DX009 (ip), vehicle: saline) was 226 % of control; the T/C (dose: 12.0 mg/kg/injection, schedule: Q01DX009 (ip), vehicle: saline) was 93 % of control.
